# Data published in patent US12510524B2, “Compositions containing cannabinoid analog conjugates and methods of use” (priority 2014, dated 2025).
# “And” between values parts separate entries of the source, which are not always exact repeats. Identical values can stand only once. Like-named read-outs stand apart in the source and are kept apart here.
# Columns and labels:
# DLBCL cancer cell lines = assay: MTS cell viability assay, DLBCL cell lines as a group; type: cell-based; conditions: for effect on the viability of DLBCL cancer cell lines: EJ, U2932, CJ and LY19, 72 h incubation, FIGS. 13-16; for IC50: read-out: Average IC50
# Description: (§1) The effects of SR141716 and VYR206 were analyzed. MTS assays for cell viability (72 h incubation) were performed on diffuse large B-cell lymphoma (DLBCL) cells—LR, MS, RC and DOHH2 (FIGS. 18A-18D) and mantle cell lymphoma (MCL) cells—Jeko, Mino, Rec-1 and JMP1 (FIGS. 19A-19D).
# [1] = system: DLBCL (RC) and MCL (Mino) cancer cell lines; assay: MTS cell viability assay, CBD alone and in combination with chemotherapeutics; type: cell-based; conditions: at the given amounts, 72 h incubation
# Description: (§4) The formazan dye is quantified by measuring the absorbance at 490-500 nm.
# Cell viability assays (MTS) were performed to determine the viability of DLBCL (RC) and MCL (Mino) cancer cell lines in vitro (72 hour-incubation) in the presence of CB2-agonist—CBD alone and in combination with ibrutinib. Cell viability assays (MTS) were performed to determine the viability of DLBCL (RC) and MCL (Mino) cancer cell lines in vitro (72 h incubation) in the presence of CBD alone and in combination with zanubrutinib (BGB). Cell viability assays (MTS) were performed to determine the viability of DLBCL (RC) and MCL (Mino) cancer cell lines in vitro (72 h incubation) in the presence of CBD alone and in combination with carfilzomib (CFZ). Cell viability assays (MTS) were performed to determine the viability of DLBCL (RC) and MCL (Mino) cancer cell lines in vitro (72 h incubation) in the presence CBD alone and in combination with tumorex (TMX).
# CJ cell line = assay: High throughput screening of cell viability, CJ; type: cell-based; conditions: 72-hour incubation
# Description: (§2) High throughput screening ([…]) assessment of cell viability in 16 DLBCL (FIGS. 20A and 20B) and 8 MCL (FIG. 20C) cell lines were assessed following treatment a 72-hour incubation of the cell lines with cannabidiol, which was obtained as CBD in a coconut oil extract. Cell viability, 90% of the all cells tested, remained viable in a concentration range of 0-5 μM CBD. Complete cell death was obtained at 25 μM CBD concentration only for two cancer cell lines, HT and EJ (FIG. 20B); 50 μM CBD concentration gave a complete cell death viability in seven cell lines MZ, HF, HB, CJ, MS, Toledo and EJ (FIGS. 20A and 20B).
# Toledo cell line = assay: High throughput screening of cell viability, Toledo; type: cell-based; conditions: 72-hour incubation
# Description: as §2
# cleaved PARP in RC cells = assay: Immunoblot of apoptosis induction in RC cells; type: cell-based; conditions: 24 hrs
# MCA cell line = assay: High throughput screening of cell viability, MCA; type: cell-based; conditions: 72-hour incubation, read-out: concentration range at which 50% cell viability was reached
# Description: as §2
# [2] = system: mantle cell lymphoma cancer cells (Mino, Jeko, SP53, Maver-1Z138, JMP-1, Rec-1 and PF-1); assay: High throughput screening of cell viability, MCL cell lines; type: cell-based; conditions: concentration range from 15 μM to 25 μM; FIG. 20C
# Description: as §2
# EJ cancer cell line = assay: High throughput screening of cell viability, EJ; type: cell-based; conditions: 72-hour incubation
# Description: as §2
# MT cell line = assay: High throughput screening of cell viability, MT; type: cell-based; conditions: 72-hour incubation, read-out: concentration range at which 50% cell viability was reached
# Description: as §2
# LP cell line = assay: High throughput screening of cell viability, LP; type: cell-based; conditions: 72-hour incubation, read-out: concentration range at which 50% cell viability was reached
# Description: as §2
# [3] = system: cleaved caspase 3 and cleaved PARP in BJAB cells; assay: Western analysis of apoptosis induction in BJAB cells; type: cell-based; conditions: 24 hrs
# Description: No activation of apoptosis in untreated cells (control not shown). […] At 12.5 μM CBD, there was significant apoptosis induction in cleaved PARP expression. The effect of CBD on both cleaved caspase 3 (FIG. 27C) and cleaved PARP expression (FIG. 27D) was analyzed using Western analysis. Expression of the β-actin (FIG. 27E) was used as a control for equal loading.
# HB cell line = assay: High throughput screening of cell viability, HB; type: cell-based; conditions: 72-hour incubation
# Description: as §2
# CB2 receptor expression = assay: Blot analysis of CB2 expression in DLBCL and MCL cell lines; type: cell-based; conditions: FIGS. 21B and 21C
# Description: The effect of different amounts of combinations of VYR206 and CBD on various DLBCL and MCL cell lines were evaluated by immunoblot analysis. Immunoblot analysis of cell lysates from various DLBCL and MCL cell lines was performed to show effects on expression of CBi and CB2 receptors with the expression of β-actin as the control for sample loading (FIGS. 21A-21D), with each cell line identified by respective initials.
# HT cancer cell line = assay: High throughput screening of cell viability, HT; type: cell-based; conditions: 72-hour incubation
# Description: as §2
# MS cell line = assay: High throughput screening of cell viability, MS; type: cell-based; conditions: 72-hour incubation
# Description: as §2
# Cancer cell line DOHH2 = assay: High throughput screening of cell viability, DOHH2; type: cell-based; conditions: lower concentration (0-25 μM)
# Description: as §2
# MZ cell line = assay: High throughput screening of cell viability, MZ; type: cell-based; conditions: 72-hour incubation
# Description: as §2
# [4] = system: 16 DLBCL and 8 MCL cell lines; assay: High throughput screening of cell viability, all cell lines; type: cell-based; conditions: all cells tested; concentration range 0-5 μM; 72-hour incubation
# Description: as §2
# HF cell line = assay: High throughput screening of cell viability, HF; type: cell-based; conditions: 72-hour incubation
# Description: as §2
# MS DLBCL cell line = assay: MTS cell viability assay, MS; type: cell-based; conditions: 72 h
# Description: as §1
# Ly-3 DLBCL cell line = assay: MTS cell viability assay, Ly-3; type: cell-based; conditions: read-out: IC50 on cell viability
# Description: as §4
# [5] = system: LY19 DLBCL cancer cell line; assay: MTS cell viability assay, LY19; type: cell-based; conditions: for IC50: read-out: IC50 on cell viability
# Description: as §4
# [6] = system: mantle cell lymphoma (MCL; 8 cell lines); assay: Cell viability, 8 MCL cell lines (Example 6); type: cell-based; conditions: lower-dose 10-40 μM; steep initial slopes especially in Rec-1 and SP-53; FIG. 17C
# Description: (§3) In Examples 6-8, N4-conjugated compounds were analyzed. The effects of CBi inverse agonist SR141716 and its conjugated form-VYR206 were analyzed using diffuse large B-cell lymphoma (DLBCL; 16 cancer cell lines; FIGS. 17A and 17B) and mantle cell lymphoma (MCL; 8 cell lines; FIGS. 17C and 17D) cancer cells. […] Diffuse large B-cell lymphoma cancer cells were resistant to lower VYR206 concentration (<50 μM) (FIG. 17B). […] Rimonabant by itself has severe adverse effects in patients with high or chronic dosing. Curtailing or modifying the potency may help to reduce adverse effects while still providing a therapeutic effect against cancerous cells.
# DOHH2 DLBCL cell line = assay: MTS cell viability assay, DOHH2; type: cell-based; conditions: Homo sapiens, DOHH-2, 72 h
# Description: as §1
# LR DLBCL cell line = assay: MTS cell viability assay, LR; type: cell-based; conditions: for IC50: read-out: IC50 on cell viability
# Description: as §1
# WP DLBCL cell line = assay: MTS cell viability assay, WP; type: cell-based; conditions: read-out: IC50 on cell viability
# McA DLBCL cell line = assay: MTS cell viability assay, McA; type: cell-based; conditions: 72 h, read-out: IC50 on cell viability
# Description: as §4
# [7] = system: CJ DLBCL cancer cell line; assay: MTS cell viability assay, CJ; type: cell-based; conditions: read-out: IC50 on cell viability
# Description: as §4
# HF DLBCL cell line = assay: MTS cell viability assay, HF; type: cell-based; conditions: read-out: IC50 on cell viability
# Description: as §4
# [8] = system: diffuse large B-cell lymphoma (DLBCL; 16 cancer cell lines); assay: Cell viability, 16 DLBCL cancer cell lines (Example 6); type: cell-based; conditions: 16 DLBCL cell lines; compared with VYR206; FIG. 17A
# Description: as §3
# [9] = system: EJ DLBCL cancer cell line; assay: MTS cell viability assay, EJ; type: cell-based; conditions: read-out: IC50 on cell viability
# Description: as §4
# LY-10 DLBCL cell line = assay: MTS cell viability assay, LY-10; type: cell-based; conditions: read-out: IC50 on cell viability
# Description: as §4
# LP DLBCL cell line = assay: MTS cell viability assay, LP; type: cell-based; conditions: read-out: IC50 on cell viability
# Description: as §4
# HB DLBCL cell line = assay: MTS cell viability assay, HB; type: cell-based; conditions: read-out: IC50 on cell viability
# RC DLBCL cell line = assay: MTS cell viability assay, RC; type: cell-based; conditions: drug concentration 50 μM, 72 h
# Description: as §1
# [10] = system: U2932 DLBCL cancer cell line
# Description: as §4
# [11] = read-out: concentration range at which 50% cell viability was reached
smiles,measurement,setting,value
CN1CCCCC1Cn1cc(C(=O)c2cc([N+](=O)[O-])ccc2I)c2ccccc21 (centres unmarked) [AM 1241],effect on the viability of DLBCL cancer cell lines,DLBCL cancer cell lines; MTS,significant effect
"C=C(C)[C@@H]1CCC(C)=C[C@H]1c1c(O)cc(CCCCC)cc1O [CBD, cannabidiol]",viability response compared with VYR206,"DLBCL cancer cell lines; LY19 and LR, alone and in combination, MTS, 72 h",generally the same response as VYR206
same,"viability, agents individually",[1],modest reduction in viability
same,concentration giving complete cell death,CJ cell line,50 µM
same,IC50,CJ cell line; [11],15 to 20 µM
same,concentration giving complete cell death,Toledo cell line,50 µM
same,concentration with significant apoptosis induction in cleaved PARP expression,cleaved PARP in RC cells,12.5 µM
same,IC50,MCA cell line,15 to 20 µM
same,sensitivity of MCL cancer cells,[2],less sensitive
same,concentration giving complete cell death,EJ cancer cell line,50 µM and 25 µM
same,IC50,EJ cancer cell line; [11],15 to 20 µM
same,IC50,MT cell line,15 to 20 µM
same,IC50,LP cell line,15 to 20 µM
same,concentration with significant apoptosis induction in cleaved PARP expression,[3],12.5 µM
same,cleaved caspases 3 and cleaved PARP,[3]; increasing concentration,concentration-dependent increase
same,concentration giving complete cell death,HB cell line,50 µM
same,IC50,HB cell line; [11],15 to 20 µM
same,CB2 expression,CB2 receptor expression,modulation
same,concentration giving complete cell death,HT cancer cell line,25 µM
same,concentration giving complete cell death,MS cell line,50 µM
same,susceptibility,Cancer cell line DOHH2,less susceptible
same,concentration giving complete cell death,MZ cell line,50 µM
same,IC50,MZ cell line; [11],15 to 20 µM
same,cell viability,[4],90%
same,concentration giving complete cell death,HF cell line,50 µM
"CCNC1(C(N)=O)CCN(c2ncnc3c2nc(-c2ccccc2Cl)n3-c2ccc(Cl)cc2)CC1 [CP945,598]",effect on the viability of DLBCL cancer cell lines,DLBCL cancer cell lines; MTS,significant results depending on the specific cell line
"Cc1c(C(=O)NN2CCCCC2)nn(-c2ccc(Cl)cc2Cl)c1-c1ccc(Cl)cc1 [SR141716, N-(Piperidin-1-yl)-5-(4-chlorophenyl)-1-(2,4-dichlorophenyl)-4-methyl-1H-pyrazole-3-carboxamide]",IC50,MS DLBCL cell line; read-out: IC50 on cell viability,23.7 µM
same,induction of cell death,"MS DLBCL cell line; MS, drug concentration 50 μM, MTS",< 90%
same,IC50,Ly-3 DLBCL cell line; 72 h,25.2 µM
same,effect on the viability of DLBCL cancer cell lines,DLBCL cancer cell lines; MTS,significant results depending on the specific cell line
same,"effectiveness on DLBCL, comparison of the two drugs","DLBCL cancer cell lines; LR, MS, RC and DOHH2, MTS, 72 h",more effective to DLBCL than VYR206
same,IC50,DLBCL cancer cell lines,24.4 µM
same,IC50,[5]; 72 h,15.2 µM
same,"effect on viability, comparison between cell lines","[5]; LY19, MTS, 72 h incubation",more potent effect on LY19
same,cell viability in MCL cell lines,[6],reduction of cell viability
same,inhibition at 50 µM,DOHH2 DLBCL cell line,> 50%
same,IC50,LR DLBCL cell line; 72 h,30.9 µM
same,induction of cell death,"LR DLBCL cell line; LR, drug concentration 50 μM, MTS, 72 h",< 90%
same,IC50,WP DLBCL cell line; 72 h,25.5 µM
same,IC50,McA DLBCL cell line,21.8 µM
same,IC50,[7]; 72 h,13.5 µM
same,IC50,HF DLBCL cell line; 72 h,32.7 µM
same,cell viability of DLBCL,[8],markedly decreased viability
same,IC50,[9]; 72 h,20.6 µM
same,IC50,"LY-10 DLBCL cell line; LY10, 72 h",25.1 µM
same,IC50,LP DLBCL cell line; 72 h,27.1 µM
same,IC50,HB DLBCL cell line; 72 h,29.4 µM
same,induction of cell death,RC DLBCL cell line,< 90%
same,IC50,[10],26.2 µM
"C=C(C)[C@@H]1CCC(C)=C[C@H]1c1c(O)cc(CCCCC)cc1OCCCN1CCCNCCNCCCNCC1 [VYC203, N4-Cannabidiol]",cleaved PARP expression,"cleaved PARP in RC cells; 6.25, 12.5, 25 and 50 μM",Concentration-dependent increase
C=CC(=O)N1CCC[C@@H](n2nc(-c3ccc(Oc4ccccc4)cc3)c3c(N)ncnc32)C1 [ibrutinib],IC50,"Ly-3 DLBCL cell line; Ly-3, MTS, 72 h incubation",20 µM
same,IC50,DLBCL cancer cell lines; average over the 13 DLBCL cell lines of Table 5,15.8 µM
same,IC50,"[5]; LY19, MTS, 72 h incubation",10 µM
same,IC50,"LR DLBCL cell line; LR, MTS, 72 h incubation",20 µM
same,IC50,"WP DLBCL cell line; WP, MTS, 72 h incubation",1 µM
same,IC50,"[7]; CJ, MTS, 72 h incubation",25 µM
same,IC50,"HF DLBCL cell line; HF, MTS, 72 h incubation",18 µM
same,IC50,"[9]; EJ, MTS, 72 h incubation",30 µM
same,IC50,"LY-10 DLBCL cell line; LY10, LY-10, MTS, 72 h incubation",0.5 µM
same,IC50,"LP DLBCL cell line; LP, MTS, 72 h incubation",6 µM
same,IC50,"HB DLBCL cell line; HB, MTS, 72 h incubation",20 µM
same,IC50,[10],15 µM
